Assay results as given in patent publication US9809602B2, “Compounds for treating viral infections” (INSTITUT PASTEUR KOREA, priority 2014, dated 2017).

Test system: genotype 1/2 chimeric cell culture derived HCV (HCVcc)
Test: Genotype 1/2 chimeric HCVcc assay (nano-luciferase, HCV replication)
Format: cell-based
Conditions: Hepatitis C virus, Huh7.5, 72 h
Procedure: Naïve Huh-7.5 target cells were plated at 2400 cells/well in 25 μL of culture media in 384-well plates (Greiner bio-one, μ clear black). After overnight incubation, compounds serially diluted in 10 μL of cell culture media were added. After 2 h compound treatment, cells were inoculated with 40 μL of genotype 1/2 chimeric cell culture derived HCV (HCVcc) which express structural proteins of an HCV genotype 1a isolate (TN accession number EF621489) and non-structural proteins of HCV genotype 2a (JFH-1) with nano-luciferase reporter. At 72 h post infection, nano-luciferase activity (Nano-Glo™, Promega) and cellular ATP (Cell titer-Glo™, Promega) were measured as a marker for HCV replication and cytotoxicity, respectively. EC50 and CC50 were calculated by non-linear regression analyzing using GraphPad Prism (GraphPad Software).

## CCOC(=O)c1c(NC(=O)NCc2c(-n3cccc3)sc3c2CCNC3)sc2c1CCCC2 [Compound 61]
  EC50: < 100 nM

## CCOC(=O)c1c(NC(=O)NCc2c(-c3ccccc3)sc3c2CCNC3)sc2c1CCCC2 [Compound 62]
  EC50: 100 to 1000 nM

## CCOC(=O)c1c(NC(=O)NCc2c(-n3cccc3)sc3c2CCNC3)sc2ccccc12 [Compound 63]
  EC50: 100 to 1000 nM

## CCOC(=O)c1c(NC(=O)NCc2c(-n3cccc3)sc3c2CCNC3)sc2c1CCNC2 [Compound 64]
  EC50: 1000 to 10000 nM

## Cc1nnc(-c2c(NC(=O)NCc3c(-n4cccc4)sc4c3CCN(C)C4)sc3c2CCCC3)o1 [Compound 65]
  EC50: < 100 nM

## CCOC(=O)c1c(NC(=O)NCc2c(-n3cccc3)sc3c2CCN(C)C3)sc2ccccc12 [Compound 66]
  EC50: < 100 nM

## CCOC(=O)c1c(NC(=O)NCc2c(-n3cccc3)sc3c2CCN(C)C3)sc2c1CCCC2 [Compound 67]
  EC50: < 100 nM

## CN1CCc2c(sc(-n3cccc3)c2CNC(=O)Nc2sc3c(c2C(=O)OC(C)(C)C)CCCC3)C1 [Compound 68]
  EC50: < 100 nM

## Cc1sc(NC(=O)NCc2c(-n3cccc3)sc3c2CCN(C)C3)c(C(=O)OC(C)(C)C)c1C [Compound 69]
  EC50: < 100 nM

## CCOC(=O)c1c(NC(=O)NCc2c(-n3cccc3)sc3c2CCNC3)sc(C)c1C [Compound 70]
  EC50: 100 to 1000 nM

## CCOC(=O)c1c(NC(=O)NCc2c(-n3cccc3)sc3c2CCN(C)C3)sc(C)c1C [Compound 71]
  EC50: < 100 nM

## Cc1nnc(-c2c(NC(=O)NCc3c(-n4cccc4)sc4c3CCNC4)sc(C)c2C)o1 [Compound 72]
  EC50: 100 to 1000 nM

## CCOC(=O)c1c(NC(=O)NCc2c(N3CCCC3)sc3c2CCN(C(=O)OC(C)(C)C)C3)sc2c1CCCC2 [Compound 73]
  EC50: < 100 nM

## Cc1nnc(-c2c(NC(=O)NCc3c(-n4cccc4)sc4c3CCN(C)C4)sc(C)c2C)o1 [Compound 74]
  EC50: < 100 nM

## CCOC(=O)c1c(NC(=O)NCc2c(-n3cccc3)sc3c2CCNC3)sc2c1CCC(F)(F)C2 [Compound 75]
  EC50: < 100 nM

## O=C(NCc1c(-n2cccc2)sc2c1CCNC2)Nc1sc2c(c1C(=O)N1CCOCC1)CCCC2 [Compound 76]
  EC50: 100 to 1000 nM

## CCOC(=O)c1c(N/C(=N/C#N)NCc2c(-n3cccc3)sc3c2CCN(CC)C3)sc2c1CCCC2 [Compound 77]
  EC50: > 10000 nM

## CCOC(=O)c1c(NC(=O)C(=O)NCc2c(-n3cccc3)sc3c2CCN(CC)C3)sc2c1CCCC2 [Compound 78]
  EC50: < 100 nM

## CCN1CCc2c(sc(-n3cccc3)c2CNC(=O)Nc2sc3c(c2C(=O)NCCCOC)CCCC3)C1 [Compound 79]
  EC50: 100 to 1000 nM

## CCN1CCc2c(sc(-n3cccc3)c2CNC(=O)Nc2sc3c(c2C(=O)NCC(C)C)CCCC3)C1 [Compound 80]
  EC50: < 100 nM

## CCOC(=O)c1c(NC(=O)NCc2c(Br)sc3c2CCNC3)sc2c1CCCC2 [Compound 81]
  EC50: < 100 nM

## O=C(NCc1c(-n2cccc2)sc2c1CCNC2)Nc1sc2c(c1C(=O)NCc1ccccc1)CCCC2 [Compound 82]
  EC50: 100 to 1000 nM

## O=C(NCc1c(-n2cccc2)sc2c1CCNC2)Nc1sc2c(c1C(=O)NCC1CCCCC1)CCCC2 [Compound 83]
  EC50: 1000 to 10000 nM

## CN1CCN(C(=O)c2c(NC(=O)NCc3c(-n4cccc4)sc4c3CCNC4)sc3c2CCCC3)CC1 [Compound 84]
  EC50: 1000 to 10000 nM

## CCOC(=O)c1c(NC(=O)C(=O)NCc2c(-n3cccc3)sc3c2CCN(C(=O)OC(C)(C)C)C3)sc2c1CCCC2 [Compound 85]
  EC50: > 10000 nM

## CCOC(=O)c1c(NC(=O)C(=O)NCc2c(-n3cccc3)sc3c2CCNC3)sc2c1CCCC2 [Compound 86]
  EC50: 1000 to 10000 nM

## CCOC(=O)c1c(NC(=O)NCc2c(-n3cnc(C)n3)sc3c2CCNC3)sc2c1CCCC2 [Compound 87]
  EC50: 100 to 1000 nM

## CCN1CCc2c(sc(-n3cccc3)c2CNC(=O)Nc2sc3c(c2C(=O)NCCCCNC(=O)CCCCCN)CCCC3)C1 [Compound 88]
  EC50: 1000 to 10000 nM

## CCN1CCc2c(sc(-n3cccc3)c2CNC(=O)Nc2sc3c(c2C(=O)NCCOCCOCCN)CCCC3)C1 [Compound 89]
  EC50: 1000 to 10000 nM

## CCN1CCc2c(sc(-n3cccc3)c2CNC(=O)Nc2sc3c(c2C(=O)NCCCCNC(=O)OC(C)(C)C)CCCC3)C1 [Compound 90]
  EC50: 1000 to 10000 nM

## CCN1CCc2c(sc(-n3cccc3)c2CNC(=O)Nc2sc3c(c2C(=O)NCCCCN)CCCC3)C1 [Compound 91]
  EC50: 100 to 1000 nM

## CCN1CCc2c(sc(-n3cccc3)c2CNC(=O)Nc2sc3c(c2C(=O)NCCCCNC(=O)CCCCCNC(=O)OC(C)(C)C)CCCC3)C1 [Compound 92]
  EC50: 1000 to 10000 nM

## CCOC(=O)c1c(NC(=O)NCc2ccc(CN(C)C)cc2Br)sc2c1CCCC2 [Compound 93]
  EC50: 100 to 1000 nM

## CCOC(=O)c1c(NC(=O)OCc2c(-n3cccc3)sc3c2CCN(CC)C3)sc2c1CCCC2 [Compound 94]
  EC50: < 100 nM

## CCN1CCc2c(sc(-n3cccc3)c2CNC(=O)Nc2sc3c(c2-c2c[nH]cn2)CCCC3)C1 [Compound 95]
  EC50: > 10000 nM

## CCOC(=O)c1c(NC(=O)NCc2c(C(F)(F)F)sc3c2CCNC3)sc2c1CCCC2 [Compound 96]
  EC50: < 100 nM

## CCOC(=O)c1c(NC(=O)NCc2c(Cl)sc3c2CCNC3)sc2c1CCCC2 [Compound 97]
  EC50: 100 to 1000 nM

## CC(C)N1CCc2c(sc(-n3cccc3)c2CNC(=O)Nc2sc3c(c2C(=O)OC(C)(C)C)CCCC3)C1 [Compound 98]
  EC50: < 100 nM

## CC(C)(C)OC(=O)c1c(NC(=O)NCc2c(-n3cccc3)sc3c2CCN(C(C)(C)C)C3)sc2c1CCCC2 [Compound 99]
  EC50: < 100 nM

## CCOC(=O)c1c(NC(=O)NCc2c(-n3cccc3)sc3c2CCCN3C(=O)OC(C)(C)C)sc2c1CCCC2 [Compound 100]
  EC50: > 10000 nM

## CCOC(=O)c1c(NC(=O)NCc2c(-n3cccc3)sc3c2CCCN3)sc2c1CCCC2 [Compound 101]
  EC50: 100 to 1000 nM

## CCOC(=O)c1c(NC(=O)NCc2cccc(CN(C)C)c2)sc2c1CCCC2 [Compound 102]
  EC50: 100 to 1000 nM

## CCOC(=O)c1c(NC(=O)NCc2ccc(N(C)C)cc2)sc2c1CCCC2 [Compound 103]
  EC50: < 100 nM

## CCOC(=O)c1cc(C)ccc1NC(=O)NCc1c(-n2cccc2)sc2c1CCNC2 [Compound 104]
  EC50: 1000 to 10000 nM

## CCN1CCc2c(sc(-n3cccc3)c2NC(=O)Nc2sc3c(c2C(=O)OC(C)(C)C)CCCC3)C1 [Compound 105]
  EC50: 1000 to 10000 nM

## CC(C)(C)OC(=O)c1c(NC(=O)NCc2c(-n3cccc3)sc3c2CCNC3)sc2c1CCCC2 [Compound 106]
  EC50: < 100 nM

## CCOC(=O)c1c(NC(=O)NCc2c(C)sc3c2CCNC3)sc2c1CCCC2 [Compound 107]
  EC50: < 100 nM

## CCOC(=O)c1c(NC(=O)NCc2cc(CN(C)C)ccc2F)sc2c1CCCC2 [Compound 108]
  EC50: 100 to 1000 nM

## CCOC(=O)c1sc2c(c1NC(=O)NCc1c(-n3cccc3)sc3c1CCN(CC)C3)CCCC2 [Compound 109]
  EC50: 1000 to 10000 nM

## CCOC(=O)c1c(NC(=O)NCc2c(Br)sc3c2CCN(CC)C3)sc2c1CCCC2 [Compound 110]
  EC50: < 100 nM

## CCN1CCc2c(sc(Br)c2CNC(=O)Nc2sc3c(c2C(=O)OC(C)(C)C)CCCC3)C1 [Compound 111]
  EC50: < 100 nM

## CCOC(=O)c1c(NC(=O)NCc2c(-n3cccc3)sc3c2CCNC3)sc2c1CCC2 [Compound 112]
  EC50: < 100 nM

## CCOC(=O)c1c(NC(=O)NCc2c(-n3cccc3)sc3c2CCNC3)sc2c1CCCCC2 [Compound 113]
  EC50: 100 to 1000 nM

## CCN1CCc2c(sc(-n3cccc3)c2CNC(=O)Nc2sc3c(c2C(=O)OC(C)(C)C)CCC3)C1 [Compound 114]
  EC50: < 100 nM

## CCN1CCc2c(sc(-n3cccc3)c2CNC(=O)Nc2sc3c(c2C(=O)OC(C)(C)C)CCCCC3)C1 [Compound 115]
  EC50: < 100 nM

## CC(C)(C)OC(=O)c1c(NC(=O)NCc2c(Br)sc3c2CCNC3)sc2c1CCCC2 [Compound 116]
  EC50: < 100 nM

## CC(C)(C)OC(=O)c1c(NC(=O)NCc2c(C(F)(F)F)sc3c2CCNC3)sc2c1CCCC2 [Compound 117]
  EC50: < 100 nM

## CCOC(=O)c1c(NC(=O)NCc2c(C(F)(F)F)sc3c2CCN(CC)C3)sc2c1CCCC2 [Compound 118]
  EC50: < 100 nM

## CCN1CCc2c(sc(C(F)(F)F)c2CNC(=O)Nc2sc3c(c2C(=O)OC(C)(C)C)CCCC3)C1 [Compound 119]
  EC50: < 100 nM

## CCOC(=O)c1c(NC(=O)C(=O)NCc2c(C(F)(F)F)sc3c2CCNC3)sc2c1CCCC2 [Compound 120]
  EC50: 1000 to 10000 nM

## CCN1CCc2c(sc(-n3cccc3)c2CNC(=O)Nc2sc3c(c2C(=O)N(C)C)CCCC3)C1 [Compound 122]
  EC50: 100 to 1000 nM

## CC(C)(C)OC(=O)c1c(NC(=O)NCc2c(-c3cccnc3)sc3c2CCNC3)sc2c1CCCC2 [Compound 123]
  EC50: < 100 nM

## CC(C)(C)OC(=O)c1c(NC(=O)NCc2csc3c2CCNC3)sc2c1CCCC2 [Compound 124]
  EC50: < 100 nM

## CCOC(=O)c1c(NC(=O)NCc2c(N3CCCC3)sc3c2CCNC3)sc2c1CCCC2 [Compound 125]
  EC50: 100 to 1000 nM

## COc1sc2c(c1CNC(=O)Nc1sc3c(c1C(=O)OC(C)(C)C)CCCC3)CCNC2 [Compound 126]
  EC50: < 100 nM

## CCN1CCc2c(sc(-n3cccc3)c2CNC(=O)Nc2sc3c(c2C(=O)OC)CCCC3)C1 [Compound 127]
  EC50: < 100 nM

## COC(=O)c1c(NC(=O)NCc2c(Br)sc3c2CCNC3)sc2c1CCCC2 [Compound 128]
  EC50: < 100 nM

## COC(=O)c1c(NC(=O)NCc2c(C(F)(F)F)sc3c2CCNC3)sc2c1CCCC2 [Compound 129]
  EC50: < 100 nM

## CC(C)(C)OC(=O)c1c(NC(=O)NCc2c(-c3ccccc3)sc3c2CCNC3)sc2c1CCCC2 [Compound 130]
  EC50: < 100 nM

## CC(C)(C)OC(=O)c1c(NC(=O)NCc2c(-c3ccc(C(F)(F)F)nc3)sc3c2CCNC3)sc2c1CCCC2 [Compound 131]
  EC50: 100 to 1000 nM

## CCOC(=O)c1c(NC(=O)NCc2c(C(F)(F)F)sc3c2CCNC3)sc(C)c1C [Compound 132]
  EC50: < 100 nM

## CCOC(=O)c1c(NC(=O)NCc2c(Br)sc3c2CCNC3)sc(C)c1C [Compound 133]
  EC50: < 100 nM
